According to ChEMBL document CHEMBL1201862, “PubChem BioAssay data set” (2004):
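Dose response: 5 concentrations. Exposure: 48 h. Format: 96-well plates. Endpoint: linear interpolation; highest concentration if not reached. Abbreviation: GI50, concentration required for 50% inhibition of growth.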 Calls of active or inactive are those of the source. No stated cut-off is given here; in the data, active = GI50 up to about 1.1 µM and inactive = higher.

Tests used:
Experiment in all cases: NCI-60 cell line screen, 48 h
BT-549 = system: BT-549
SK-MEL-5 = system: SK-MEL-5
SN12C = system: SN12C
IGROV-1 = system: IGROV-1
HT-29 = system: HT-29
CAKI-1 = system: CAKI-1
EKVX = system: EKVX
MDA-MB-231 = system: MDA-MB-231
UACC-62 = system: UACC-62
HCT-15 = system: HCT-15
OVCAR-8 = system: OVCAR-8
HL-60 = system: HL-60
OVCAR-4 = system: OVCAR-4
NCI-H460 = system: NCI-H460
SK-MEL-28 = system: SK-MEL-28
RXF 393 = system: RXF 393
NCI-H226 = system: NCI-H226
TK-10 = system: TK-10
SR = system: SR
A549 = system: A549

Structure (SMILES)	GI50 (BT-549)	GI50 (SK-MEL-5)	GI50 (SN12C)	GI50 (IGROV-1)	GI50 (HT-29)	GI50 (CAKI-1)	GI50 (EKVX)	GI50 (MDA-MB-231)	GI50 (UACC-62)	GI50 (HCT-15) [µM]	GI50 (OVCAR-8)	GI50 (HL-60)	GI50 (OVCAR-4)	GI50 (NCI-H460)	GI50 (SK-MEL-28)	GI50 (RXF 393)	GI50 (NCI-H226)	GI50 (TK-10)	GI50 (SR)	GI50 (A549)
O=[N+]([O-])c1ccc2ncccc2c1CCc1c([N+](=O)[O-])ccc2ncccc12	> 100 µM (inactive)	> 100 µM (inactive)	> 100 µM (inactive)	> 100 µM (inactive)	> 100 µM (inactive)	> 100 µM (inactive)	> 100 µM (inactive)	> 100 µM (inactive)	> 100 µM (inactive)	> 100	> 100 µM (inactive)	> 100 µM (inactive)	> 100 µM (inactive)	> 100 µM (inactive)	> 100 µM (inactive)	> 100 µM (inactive)	> 100 µM (inactive)	> 100 µM (inactive)	> 100 µM (inactive)	> 100 µM (inactive)
CC(=O)N1c2ccccc2C(C)C1c1[nH]c2ccccc2c1C (stereo not given)	22.5 µM (inactive)	13.7 µM (inactive)	17.1 µM (inactive)	24.1 µM (inactive)	20.2 µM (inactive)	22.8 µM (inactive)	18.1 µM (inactive)	18.6 µM (inactive)	18.4 µM (inactive)	27.2	20.8 µM (inactive)	18.6 µM (inactive)	23.4 µM (inactive)	19.3 µM (inactive)	20.3 µM (inactive)	13 µM (inactive)	25.3 µM (inactive)	22.8 µM (inactive)	13.9 µM (inactive)	23.4 µM (inactive)
Cc1cc(N)c2ccccc2[n+]1CCCCCCCCCC[n+]1c(C)cc(N)c2ccccc21 [DEQUALINIUM CHLORIDE]	1 µM (active)	0.528 µM (active)	1.45 µM (inactive)	1.72 µM (inactive)	1 µM (active)	7.06 µM (inactive)	1.82 µM (inactive)	1.82 µM (inactive)	1.82 µM (inactive)	4.31	1.9 µM (inactive)	0.533 µM (active)	2.43 µM (inactive)	0.54 µM (active)	0.879 µM (active)	10.4 µM (inactive)	3.37 µM (inactive)	4.09 µM (inactive)	0.472 µM (active)	0.887 µM (active)
OC1(c2ccc3ccccc3c2)c2c(c3ccccc3c3ccccc23)C2=NCCN21 (stereo not given)	14.7 µM (inactive)	17 µM (inactive)	9.2 µM (inactive)	3.85 µM (inactive)	2.8 µM (inactive)	11.7 µM (inactive)	5.51 µM (inactive)	10.1 µM (inactive)	13.5 µM (inactive)	4.63	4.44 µM (inactive)	6.46 µM (inactive)	3.55 µM (inactive)	4.3 µM (inactive)	2.12 µM (inactive)	2.47 µM (inactive)	34.5 µM (inactive)	7.98 µM (inactive)	3.08 µM (inactive)	7.1 µM (inactive)
C=C1CC[C@@]2(C)[C@@H]([C@@H]1C)[C@H]1CC[C@@H]3[C@@]4(C)CC[C@H](O)C(C)(C)[C@@H]4CC[C@@]3(C)[C@]1(C)C[C@@H]2O	10 µM (inactive)	5.16 µM (inactive)	2.52 µM (inactive)	2 µM (inactive)	3.9 µM (inactive)	2.42 µM (inactive)	3 µM (inactive)	1.96 µM (inactive)	7.45 µM (inactive)	3.24	1.85 µM (inactive)	1.53 µM (inactive)	2.49 µM (inactive)	2.11 µM (inactive)	4.12 µM (inactive)	1.77 µM (inactive)	5 µM (inactive)	5.62 µM (inactive)	> 100 µM (inactive)	2.05 µM (inactive)
Cc1ccc(C(=O)/C=C(O)/C(O)=C/C(=O)c2ccc(C)cc2C)c(C)c1	1.64 µM (inactive)	1.75 µM (inactive)	2.1 µM (inactive)	1.98 µM (inactive)	2.48 µM (inactive)	2.07 µM (inactive)	2.34 µM (inactive)	2.34 µM (inactive)	1.79 µM (inactive)	2	2.86 µM (inactive)	0.0641 µM (active)	2.7 µM (inactive)	1.71 µM (inactive)	1.86 µM (inactive)	2.02 µM (inactive)	2.04 µM (inactive)	1.8 µM (inactive)	2.33 µM (inactive)	2.48 µM (inactive)
CC1(C)CCCCCC(O)C(O)CCC(C)(C)C1=O (stereo not given)	> 100 µM (inactive)	> 100 µM (inactive)	> 100 µM (inactive)	> 100 µM (inactive)	> 100 µM (inactive)	> 100 µM (inactive)	> 100 µM (inactive)	> 100 µM (inactive)	> 100 µM (inactive)	> 100	> 100 µM (inactive)	> 100 µM (inactive)	> 100 µM (inactive)	> 100 µM (inactive)	> 100 µM (inactive)	> 100 µM (inactive)	> 100 µM (inactive)	> 100 µM (inactive)	> 100 µM (inactive)	> 100 µM (inactive)
Fc1ccc(C(=C2CCN(CCc3ccc4[nH]c(=S)[nH]c4c3)CC2)c2ccc(F)cc2)cc1	5.98 µM (inactive)	1.84 µM (inactive)	4.52 µM (inactive)	3.99 µM (inactive)	1.9 µM (inactive)	10.8 µM (inactive)	3.51 µM (inactive)	4.43 µM (inactive)	5.32 µM (inactive)	3.15	2.74 µM (inactive)	2.33 µM (inactive)	5 µM (inactive)	2.83 µM (inactive)	1.51 µM (inactive)	1.85 µM (inactive)	22 µM (inactive)	2.17 µM (inactive)	2.7 µM (inactive)	3.94 µM (inactive)
O=[N+]([O-])c1cc(-c2nc(-c3ccccc3)c(-c3ccccc3)[nH]2)c(O)c([N+](=O)[O-])c1	20 µM (inactive)	17.7 µM (inactive)	26.5 µM (inactive)	32.7 µM (inactive)	16.8 µM (inactive)	27.4 µM (inactive)	23.4 µM (inactive)	22.4 µM (inactive)	17.5 µM (inactive)	15.8	34 µM (inactive)	25.6 µM (inactive)	34 µM (inactive)	21.5 µM (inactive)	31.7 µM (inactive)	17.4 µM (inactive)	20.1 µM (inactive)	28.5 µM (inactive)	20.8 µM (inactive)	34.4 µM (inactive)
c1ccc(-c2cc(-c3cccs3)c(-c3cccs3)o2)cc1	> 100 µM (inactive)	> 100 µM (inactive)	> 100 µM (inactive)	> 100 µM (inactive)	> 100 µM (inactive)	> 100 µM (inactive)	> 100 µM (inactive)	> 100 µM (inactive)	> 100 µM (inactive)	> 100	> 100 µM (inactive)	> 100 µM (inactive)	> 100 µM (inactive)	> 100 µM (inactive)	> 100 µM (inactive)	> 100 µM (inactive)	> 100 µM (inactive)	> 100 µM (inactive)	> 100 µM (inactive)	> 100 µM (inactive)
